In PMC4761914, “Improvement of pyrazolo[3,4-d]pyrimidines pharmacokinetic properties: nanosystem approaches for drug delivery” (Scientific Reports, 2016):
Read-outs that look alike come from different tables or passages of the source.

Key:
[1] = Entrapment efficiency by HPLC-UV-MS after disruption of nanoparticles; type: physicochemical; conditions: compound encapsulated in albumin nanoparticles
Protocol: The albumin nanoparticles were prepared by mixing 100 μL of compound solution in EtOH (1 mg/mL) with 900 μL of HSA solution in PBS (pH 7.4, 25 mM) (5 mg/mL)[52]. Cysteine was added up to a final concentration of 5 mg/mL, and the resulting solution was kept at 37 °C, for 45 min. The excess of cysteine was eliminated by dialysis using a cellulose membrane (capacity 60 mL/ft, cut-off 14 kDa, diameter 16 mm, width 25mm). D,L-glyceraldehyde was added to this solution, to a final concentration of 5 μM[53]. The sample was then filtered through a nylon syringe filter with pores of 0.2 μm (Acrodisc 25 mm Syringe Filter) to obtain a sterile solution of the drug-albumin nanoparticles. The concentration of the compound in the final sample was determined by HPLC-UV-MS (HPLC-UV-MS method in the supporting material), after denaturation of the protein by acetonitrile and centrifugation (4500 rpm, 15 min, 4 °C).
The method developed by A.D. Bangham, namely thin layer evaporation, was used for the preparation of LP-1, LP-2, LP-3 and LP-4. Lipids DPPC, Chol and MPEG-2000-DPPE Na (molar ratio 20:10:1) were dissolved in a mixture of CHCl3:MeOH = 3:1 (3 mL, round-bottomed flask). A 1 mM solution of each compound (1, 2, 3, 4) in CHCl3:MeOH = 3:1 was prepared. […] The drug concentration was determined after disruption of liposomes by treatment with ethanol at 40 °C (1:1 = v/v). The compound was extracted and quantified by HPLC-UV-MS (HPLC-UV-MS method in the supporting material). […]
E.E.%c NDd NDd NDd NDd NDd NDd NDd NDd NDd NDd NDd aCalculated on the basis of the total amount of compound dissolved in the organic solvent; bat 37 °C; c at 45°C. dND: compound not detected after filtration 0.2 µm syringe filter. […]
The percentage of entrapment efficacy was calculated with the following equation: […]
where, Fi is the concentration of compound determined in the nano-preparation (evaluated by HPLC-UV-MS, after disruption of nanoparticles) and Ft is the theoretical final concentration (Calculated on the basis of the total amount of compound dissolved in the organic solvent). […]

[2] = H2O, 20 °C, 24 hrs; cited from earlier work
[3] = parameters: method as in PMID 25469771, PMID 21050441, PMID 21856155; conditions: cited from earlier work; for PAMPA: pH 7.4, 5 hours, room temperature; for MR (Membrane Retention): percentage of compound unable to reach the acceptor compartment
[4] = parameters: method as in PMID 25469771, PMID 21050441, PMID 21856155; conditions: percentage of unmodified drug, human liver microsomes, 37 °C, 60 min; cited from earlier work
SH-SY5Y NB cells = test: Antiproliferative activity / cytotoxicity, Trypan blue assay; type: cell-based; conditions: Homo sapiens
Protocol: In vitro experiments were carried out using the human NB cell line SH-SY5Y. Cells were purchased from American Type Culture Collection (ATCC, Manassas, VA, USA) and were cultured in DMEM/F12 1:1 medium supplemented with 10% FBS, 2 mM L-glutamine and 10000 units/mL Penicillin/Streptomycin at 37 °C in 5% CO2 atmosphere. In order to determine the antiproliferative effect of drugs (1–4) and nanosystems, SH-SY5Y cells were seeded at 10^5 cells/well density and treated with albumin (PBS solution, pH 7.4) or empty liposomes (0.9% NaCl solution, pH 7.4), compounds encapsulated with albumin (PBS solution, pH 7.4) or liposomes LP-1, LP-3 and LP-4 (0.9% NaCl solution, pH 7.4) and free compounds 1, 3 and 4 (DMSO solution) at increasing concentrations (0.1 μM, 1.0 μM, 10 μM and 50 μM). IC50 determination for LP-2 and compound 2 was performed testing the following concentrations as well: 0.01 μM, 0.05 μM, 0.5 μM and 5 μM. The cultures were maintained at 37 °C in 5% v/v CO2 for 24, 48 and 72 h. Cell number and viability were evaluated using the Bürker chamber, after treatment with Trypan Blue. IC50 was calculated by GraphPad Prism 6.0 software using the best fitting sigmoid curve.

Src = biological target: Src; parameters: method as in PMID 25469771, PMID 21050441, PMID 21856155; conditions: cited from earlier work

drug loading [1]	Compound	Aqueous Solubility [2]	PAMPA [3]	MR (Membrane Retention) [3] [%]	Metabolic Stability [4] [%]	IC50 (SH-SY5Y NB cells; 24 h, read-out: IC50 24 h) [µM]	IC50 (SH-SY5Y NB cells; 48 h, read-out: IC50 48 h) [µM]	IC50 (SH-SY5Y NB cells; 72 h, read-out: IC50 72 h) [µM]	Ki (Src) [nM]
around 6%	CSc1nc(NCc2ccccc2)c2cnn(CC(Cl)c3ccccc3)c2n1 (stereo not shown) [Compound 1]	0,21 μg/mL	3.98 10^−6 cm^2/sec	46.8	95.8	21.8 ± 1.7	16.5 ± 1.67	13.5 ± 2	–
50%	ClC(Cn1ncc2c(Nc3cccc(Br)c3)nc(SCCN3CCOCC3)nc21)c1ccccc1 (stereo not shown) [Compound 2]	–	–	–	96.0	12.6 ± 1.6	2.66 ± 0.015	2.28 ± 0.29	130
–	CC(Cn1ncc2c(Nc3cccc(Cl)c3)nc(SCCN3CCOCC3)nc21)c1ccccc1 (stereo not shown) [Compound 3]	0,22 μg/mL	5.51 10^−6 cm^2/sec	48.9	97.9	3.04 ± 0.09	2.65 ± 0.08	1.54 ± 1.07	400

Compound	drug loading [1]	Aqueous Solubility [2]	PAMPA [3]	MR (Membrane Retention) [3] [%]	Metabolic Stability [4] [%]	IC50 (SH-SY5Y NB cells; 24 h, read-out: IC50 24 h) [µM]	IC50 (SH-SY5Y NB cells; 48 h, read-out: IC50 48 h) [µM]	IC50 (SH-SY5Y NB cells; 72 h, read-out: IC50 72 h) [µM]	Ki (Src) [nM]
CC(C)Sc1nc(Nc2cccc(O)c2)c2cnn(CC(Cl)c3ccccc3)c2n1 (stereo not shown) [Compound 4]	50%	0,90 μg/mL	4.53 10^−6 cm^2/sec	49.6	93.5	13.6 ± 0.94	10.1 ± 0.5	8.63 ± 0.75	10
